3 compounds from patent US20040234588A1 (priority 2000, published 2004) can be followed below.

Read-outs that look alike come from different tables or passages of the source.

Data set [1] is classed as physicochemical.
In data set [2] the test system is Human glioma cell line SF-767. The data set is classed as cell-based. To be noted: cells pretreated with chloroquine 30 minutes at 37° C., nanoemulsion/p-PLL/DNA complex, two quantities.
The format of data set [3] is physicochemical. To be noted: after 38 days at 4° C., HPLC.
The next data set deals with rat 9L glioma cells. The data set is classed as cell-based.
The test system of data set [4] is human glioma cells 767 SF. The data set is classed as cell-based. The settings on record: for Concentration of B in the cells after 18 hrs incubation: initial B in the media 38 μg.

In the case of `C[C@@H]1[C@H](O)[C@@H](C)/C=C/C=C/C=C/C=C/C=C/C=C/C=C/[C@H](O[C@@H]2O[C@H](C)[C@@H](O)[C@H](N)[C@@H]2O)C[C@@H]2O[C@](O)(C[C@@H](O)C[C@@H](O)[C@H](O)CC[C@@H](O)C[C@@H](O)CC(=O)O[C@H]1C)C[C@H](O)[C@H]2C(=O)O` [AmpB, Amphotericin B], the “AmpB incorporated in the submicron emulsion system” value in data set [1] (10 mg AmpB added to 100 mg lipids) is given as 2.33 mg. Moreover, the “incorporated AmpB recovered with the first fraction” value in data set [1] (first fraction, particle size 177 nm) was found to be 72%.
As for `CCN(CC)CCCC(C)Nc1ccnc2cc(Cl)ccc12` (stereo not drawn) [chloroquine], the “effect on transfection efficiency (β-galactosidase activity)” value in data set [2] is on record as “greatly increased the transfection efficiency”.
As to “cholesteryl 1,12-dicarba-closo-dodecaborane 1-carboxylate [BCH]”, the “initial BCH recovered from the formulation” value in data set [3] is given as “about 85%”. The “Concentration of B in the cells after 18 hrs incubation” value with rat 9L glioma cells (High concentration: initial B in the media 16.5 μg/ml) worked out at 61 ± 13 μg/g cells; in the data set on rat 9L glioma cells (Low concentration: initial B in the media 8.25 μg/ml), 50 ± 10 μg/g cells; in data set [4] (FBS media) it was 57.6 ± 15.5 μg/g cells; in data set [4] (LPDS media) it was 14.7 ± 3.5 μg/g cells. Besides, the “uptake in FBS relative to LPDS” value in data set [4] (FBS (lipoproteins present) vs LPDS (no lipoproteins)) is “more than triple”.
